Where “and” joins values, the source holds several entries; their conditions need not be identical. Identical values can stand only once. Entries after “also recorded” stand apart in the source; their conditions may differ. Like-named read-outs stand apart in the source and are kept apart here.
Legend:
[1] = target: T1, MalE-VirF binding to the 5'Cy5-pvirB DNA probe (Shigella flexneri, UniProt P0A2T1); assay: Electrophoretic mobility shift assay (EMSA) of MalE-VirF binding to pvirB DNA probe; conditions: compound 100 μM; MalE-VirF 1 μM; probe 0.25 μM
T1 construct: pMALvirF was constructed by cloning the virF gene into the vector, pMAL-c2x; made in house; host or cells: Shigella flexneri BS103 (pBAD202-MALvirF); initial preparations in E. coli KS1000 (pMALvirF)
T1 sequence (P0A2T1 whole entry, looked up): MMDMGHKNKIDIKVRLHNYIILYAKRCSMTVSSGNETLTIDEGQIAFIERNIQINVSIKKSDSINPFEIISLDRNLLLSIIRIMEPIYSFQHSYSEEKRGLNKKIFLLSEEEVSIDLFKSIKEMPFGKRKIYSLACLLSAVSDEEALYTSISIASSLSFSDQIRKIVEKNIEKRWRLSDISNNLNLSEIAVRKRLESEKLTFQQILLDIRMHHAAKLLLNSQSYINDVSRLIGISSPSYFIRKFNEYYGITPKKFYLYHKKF
Protocol: Reactions for the EMSAs were incubated in a 37°C water bath for 15 minutes. Reactions (15 μL total volume) were composed of 6 μL pvirB EMSA DNA probe (0.25 μM), 6 μL of either MalE-VirF (1.0 μM) or native gel loading buffer (Tris-HCl 0.3 M, 50% glycerol, 0.05% bromophenol blue, pH 7.0), 1 μL of salmon sperm DNA (0.7 mg/mL, Invitrogen), 0.5 μL BSA (0.07 mg/mL), and 1.5 μL of either DMSO or compound (100 μM). A 6% native polyacrylamide gel (29:1 acrylamide to bis-acrylamide ratio) was made with 0.25X TBE buffer (22 mM Tris Base, 22 mM boric acid, 0.5 mM EDTA, pH 9.5) for the EMSA. The gel was electrophoresed for 1 hour at 150 V in 0.25X TBE buffer at 4°C before samples were loaded. After the reaction solutions (12 μL) were loaded onto the gel, the gel was electrophoresed for an additional hour at 150 V and 4°C. The gel was then visualized using FluorChem M gel imager (Protein Simple, Santa Clara, CA) with a 607 nm excitation wavelength and a 710 nm emission filter.

[2] = test system: 10 bp pvirB FID DNA probes; assay: Fluorescence intercalator displacement (FID) assay, 10 bp probes; assay type: binding, Shigella flexneri; conditions: for 10 bp pvirB 51–60 FID probe %fluorescence: ethidium bromide 7.5 μM, probe 1.5 μM
Protocol: The FID protocol was based on previously published studies and was conducted in triplicate. For the assay, black, half-area, 96-well plates (Corning, Twerksbury, MA) were used. First, 70 μL of ethidium bromide in Tris Buffer (0.1 M Tris HCl, 0.1 M NaCl, pH 8.0) was added to all wells. The concentration of ethidium bromide was contingent upon the length of the DNA probe that was used. For the 60 bp pvirB FID DNA probe, the final ethidium bromide concentration used was 45 μM; whereas, for the 10 bp pvirB (51–60) FID DNA probe, the final ethidium bromide concentration used was 7.5 μM. Next, 10 μL of either pvirB FID DNA probes (10 or 60 bp) in TE/NaCl buffer (see above) or 10 μL of TE/NaCl buffer (background fluorescence control) were added to the appropriate wells of the plate. The final concentrations of the pvirB FID DNA probes were 1.5 μM. Lastly, 20 μL of test compound (either 19615 or Berenil) in 10% DMSO Tris Buffer or 20 μL of 10% DMSO Tris Buffer (100% fluorescence control) were added to the appropriate wells of the plate. […] After the addition of all reagents, the plates were protected from light and allowed to equilibrate for 30 min on an orbital shaker at room temperature. Following equilibration, fluorescence was measured […] using a Biotek Synergy H1 plate reader (Winooski, VT). The average background fluorescence was subtracted from all data generated and %fluorescence was calculated for all wells containing compound via the following formula: %fluorescence=Ftest/F100%^*100 where: Ftest = the average fluorescence value obtained for each test compound and F100% = the average fluorescence value obtained for each 100% fluorescence control.

mammalian cells = test system: mammalian cells; parameters: method as in PMID 24549153; conditions: at the tested concentrations; cited from earlier work
[3] = test system: E. coli RNA polymerase (RNAP) binding to the lac promoter (plac); assay: Control EMSA of E. coli RNA polymerase binding to the lac promoter; conditions: compound 100 μM; RNAP 2.7 μM; 5'Cy5-plac probe 0.25 μM
E. coli RNA polymerase (RNAP) binding to the lac promoter (plac), sequence (P0A7Z4 whole entry): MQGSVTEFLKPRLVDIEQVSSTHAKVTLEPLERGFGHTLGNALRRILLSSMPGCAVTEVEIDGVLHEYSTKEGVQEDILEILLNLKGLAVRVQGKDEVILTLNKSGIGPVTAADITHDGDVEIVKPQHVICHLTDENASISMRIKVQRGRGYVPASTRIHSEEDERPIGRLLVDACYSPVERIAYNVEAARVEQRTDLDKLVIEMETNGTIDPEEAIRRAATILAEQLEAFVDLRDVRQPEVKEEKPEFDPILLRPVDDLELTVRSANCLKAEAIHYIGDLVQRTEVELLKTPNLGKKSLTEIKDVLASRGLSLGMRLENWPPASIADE
E. coli RNA polymerase (RNAP) binding to the lac promoter (plac), sequence (P0A800 whole entry, further chain): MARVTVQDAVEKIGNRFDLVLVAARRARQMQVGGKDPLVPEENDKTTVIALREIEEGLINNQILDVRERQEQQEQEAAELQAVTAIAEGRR
E. coli RNA polymerase (RNAP) binding to the lac promoter (plac), sequence (P0A8T7 whole entry, further chain): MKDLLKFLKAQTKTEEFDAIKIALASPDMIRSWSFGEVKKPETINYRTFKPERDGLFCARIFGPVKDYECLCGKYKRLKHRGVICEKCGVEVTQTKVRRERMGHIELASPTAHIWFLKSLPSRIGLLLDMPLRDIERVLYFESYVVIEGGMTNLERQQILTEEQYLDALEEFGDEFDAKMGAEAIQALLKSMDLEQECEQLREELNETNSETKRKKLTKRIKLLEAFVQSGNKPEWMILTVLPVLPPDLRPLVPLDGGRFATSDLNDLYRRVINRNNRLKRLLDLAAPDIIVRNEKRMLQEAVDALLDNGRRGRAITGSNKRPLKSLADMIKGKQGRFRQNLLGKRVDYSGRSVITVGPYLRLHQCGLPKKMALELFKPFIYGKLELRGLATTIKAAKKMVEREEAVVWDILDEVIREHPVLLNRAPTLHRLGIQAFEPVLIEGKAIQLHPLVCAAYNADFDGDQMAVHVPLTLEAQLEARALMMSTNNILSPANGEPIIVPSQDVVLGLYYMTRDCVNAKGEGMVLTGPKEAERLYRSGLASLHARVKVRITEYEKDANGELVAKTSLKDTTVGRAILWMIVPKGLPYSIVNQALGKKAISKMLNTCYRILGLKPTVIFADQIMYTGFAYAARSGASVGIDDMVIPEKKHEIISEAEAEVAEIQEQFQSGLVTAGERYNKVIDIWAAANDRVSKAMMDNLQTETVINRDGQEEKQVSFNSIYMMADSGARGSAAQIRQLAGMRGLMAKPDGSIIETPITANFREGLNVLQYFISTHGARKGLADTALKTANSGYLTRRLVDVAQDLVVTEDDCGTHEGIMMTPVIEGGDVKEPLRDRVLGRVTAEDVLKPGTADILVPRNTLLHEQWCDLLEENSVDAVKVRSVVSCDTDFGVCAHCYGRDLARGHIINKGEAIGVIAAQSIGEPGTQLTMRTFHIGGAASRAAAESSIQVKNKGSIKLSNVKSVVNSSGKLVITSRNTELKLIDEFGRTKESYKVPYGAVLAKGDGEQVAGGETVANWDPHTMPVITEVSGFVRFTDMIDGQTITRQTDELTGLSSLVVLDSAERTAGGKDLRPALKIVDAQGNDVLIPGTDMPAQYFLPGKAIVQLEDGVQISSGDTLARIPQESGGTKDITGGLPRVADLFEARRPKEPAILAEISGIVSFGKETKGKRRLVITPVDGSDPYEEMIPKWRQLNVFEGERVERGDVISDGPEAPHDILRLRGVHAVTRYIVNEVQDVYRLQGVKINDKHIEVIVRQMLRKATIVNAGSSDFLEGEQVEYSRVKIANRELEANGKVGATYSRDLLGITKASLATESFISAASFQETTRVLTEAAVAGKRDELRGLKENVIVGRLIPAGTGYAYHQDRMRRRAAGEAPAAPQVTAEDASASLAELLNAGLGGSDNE
E. coli RNA polymerase (RNAP) binding to the lac promoter (plac), sequence (P00579 whole entry, further chain): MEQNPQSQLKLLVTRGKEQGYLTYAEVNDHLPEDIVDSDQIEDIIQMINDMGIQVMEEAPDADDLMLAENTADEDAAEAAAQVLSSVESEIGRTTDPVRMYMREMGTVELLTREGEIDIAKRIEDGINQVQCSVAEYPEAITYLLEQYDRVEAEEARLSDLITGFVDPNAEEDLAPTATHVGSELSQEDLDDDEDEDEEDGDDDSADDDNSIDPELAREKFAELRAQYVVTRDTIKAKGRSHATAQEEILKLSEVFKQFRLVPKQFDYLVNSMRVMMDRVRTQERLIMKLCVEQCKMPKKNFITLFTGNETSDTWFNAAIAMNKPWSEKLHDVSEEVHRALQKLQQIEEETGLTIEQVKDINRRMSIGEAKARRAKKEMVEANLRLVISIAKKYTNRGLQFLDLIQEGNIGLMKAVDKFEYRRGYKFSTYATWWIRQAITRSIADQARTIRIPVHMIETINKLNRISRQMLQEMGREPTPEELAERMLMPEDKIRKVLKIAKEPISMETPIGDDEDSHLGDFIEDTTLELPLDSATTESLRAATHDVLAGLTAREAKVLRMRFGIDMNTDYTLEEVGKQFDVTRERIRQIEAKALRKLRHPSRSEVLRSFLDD
E. coli RNA polymerase (RNAP) binding to the lac promoter (plac), sequence (P0A8V2 whole entry, further chain): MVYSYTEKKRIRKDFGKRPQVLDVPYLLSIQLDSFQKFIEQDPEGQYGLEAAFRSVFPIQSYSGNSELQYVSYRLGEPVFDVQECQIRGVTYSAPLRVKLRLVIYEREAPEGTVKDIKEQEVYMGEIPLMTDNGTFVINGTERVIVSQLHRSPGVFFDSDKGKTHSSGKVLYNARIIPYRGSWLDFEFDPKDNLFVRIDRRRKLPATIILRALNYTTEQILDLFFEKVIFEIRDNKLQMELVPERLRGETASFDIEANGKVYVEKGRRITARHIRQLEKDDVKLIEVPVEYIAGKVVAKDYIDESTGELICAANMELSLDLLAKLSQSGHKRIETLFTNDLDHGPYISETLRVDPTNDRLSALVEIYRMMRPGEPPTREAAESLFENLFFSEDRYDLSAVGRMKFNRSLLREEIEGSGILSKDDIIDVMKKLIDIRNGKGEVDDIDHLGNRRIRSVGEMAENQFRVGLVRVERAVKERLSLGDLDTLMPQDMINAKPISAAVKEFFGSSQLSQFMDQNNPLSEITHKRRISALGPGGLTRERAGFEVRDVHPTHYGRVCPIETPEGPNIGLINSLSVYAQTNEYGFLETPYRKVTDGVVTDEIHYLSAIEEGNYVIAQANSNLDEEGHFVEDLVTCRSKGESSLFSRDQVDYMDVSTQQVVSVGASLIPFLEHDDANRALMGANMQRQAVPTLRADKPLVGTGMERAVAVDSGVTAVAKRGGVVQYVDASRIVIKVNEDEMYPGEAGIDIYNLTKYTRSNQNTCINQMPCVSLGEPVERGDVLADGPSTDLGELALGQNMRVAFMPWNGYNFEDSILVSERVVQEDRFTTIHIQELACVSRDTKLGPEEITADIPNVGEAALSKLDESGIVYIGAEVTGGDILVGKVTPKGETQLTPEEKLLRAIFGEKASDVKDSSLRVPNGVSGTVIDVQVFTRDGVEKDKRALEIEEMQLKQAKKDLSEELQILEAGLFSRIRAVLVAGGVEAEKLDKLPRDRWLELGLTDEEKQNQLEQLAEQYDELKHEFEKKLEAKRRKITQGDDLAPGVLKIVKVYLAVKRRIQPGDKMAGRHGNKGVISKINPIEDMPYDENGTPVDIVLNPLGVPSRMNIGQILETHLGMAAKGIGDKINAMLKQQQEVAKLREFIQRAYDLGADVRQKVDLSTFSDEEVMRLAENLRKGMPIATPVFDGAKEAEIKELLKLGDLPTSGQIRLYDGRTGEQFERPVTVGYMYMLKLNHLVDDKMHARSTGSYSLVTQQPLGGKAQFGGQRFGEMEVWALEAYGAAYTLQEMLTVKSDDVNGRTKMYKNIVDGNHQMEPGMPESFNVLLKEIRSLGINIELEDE
Protocol: [picture] Figure C: EMSA depicting E. coli RNA Polymerase (RNAP) Binding to the lac Promoter (plac) in the Presence of 19615. […] For the EMSA a hybrid 2% acrylamide, 1% agarose gel was used which was made with and ran in a 1X TGE buffer (25 mM Tris base, 190 mM glycine, 1 mM EDTA, pH 8.3). The sequence of the 5’Cy5-plac DNA probe is as follows: 5’-gtgccctggtctgg[…]-3’ (lowercase text represents LUEGO sequence, uppercase text represents lac promoter sequence).

S. flexneri = test system: S. flexneri; parameters: method as in PMID 24549153; conditions: at the tested concentrations; cited from earlier work
[4] = test system: spread of an active S. flexneri infection; conditions: cited from earlier work

Structure (SMILES): CN(C)CCOc1nc(-c2ccccc2)nc2c1oc1ccccc12 [compound 19615]
- Effect on MalE-VirF binding to the pvirB DNA probe (EMSA) [1]: appeared to inhibit MalE-VirF binding; also recorded: dramatically reduced binding
- %fluorescence, 10 bp fragment pvirB 21-30 ([2]; compound 2 μM, preliminary FID screen, 5'-AATAAAGATA-3'): 92% ± 1%
- %fluorescence, 10 bp fragment pvirB 31-40 ([2]; compound 2 μM, preliminary FID screen, 5'-AATTGCATCA-3'): 94% ± 2%
- %fluorescence, 10 bp fragment pvirB 1-10 ([2]; compound 2 μM, preliminary FID screen, 5'-AGAATATTAT-3'): 93% ± 6%
- %fluorescence, 10 bp fragment pvirB 41-50 ([2]; compound 2 μM, preliminary FID screen, 5'-ATCCAGCTAT-3'): 94% ± 1%
- %fluorescence, 10 bp fragment pvirB 51-60 ([2]; compound 2 μM, preliminary FID screen, 5'-TAAAATAGTA-3'): 92% and 92% ± 0%
- %fluorescence, 10 bp fragment pvirB 11-20 ([2]; compound 2 μM, preliminary FID screen, 5'-TCTTTTATCC-3'): 95% ± 3%
- 10 bp pvirB 51–60 FID probe %fluorescence ([2]; compound 12.5 μM): 97% ± 2%
- 10 bp pvirB 51–60 FID probe %fluorescence ([2]; compound 25 μM): 97% ± 3%
- 10 bp pvirB 51–60 FID probe %fluorescence ([2]; compound 50 μM): 97% ± 2%
- 10 bp pvirB 51–60 FID probe %fluorescence ([2]; compound 100 μM): 95% ± 1%
- Toxicity to mammalian cells (mammalian cells): not toxic
- Effect on RNAP binding to the lac promoter (EMSA) [3]: no effect on RNAP binding
- Toxicity to S. flexneri (S. flexneri): not toxic
- Inhibition of the spread of an active S. flexneri infection ([4]; at 6.25 μM): 75%
- Inhibition of the spread of an active S. flexneri infection ([4]; at concentrations at or below their IC50s in the reporter assay): approximately 75%
- Plaque Efficiency Assay IC75 ([4]; ref Emanuele et al. J. Antibiotics 67:379–386 (2014)): 6.25 µM

— PMC4564171 (PLoS ONE, 2015)
